Measurements from US6528528B2 (Warner-Lambert Company, priority 1997, dated 2003).

Legend:
[1] = molecular target: T1, rabbit reticulocyte 15-LO (Oryctolagus cuniculus, UniProt P12530); test: Rabbit Reticulocyte 15-LO Assay (h15LO); assay type: biochemical; conditions: Table 2; for IC50: 2U rabbit reticulocyte 15-LO, 174 μM linoleic acid, 15 minutes at 4° C.; for h15LO, value given as bare %: concentration not given
T1 construct: Fifteen-lipoxygenase was obtained from phenylhydrazine-treated rabbits and purified per the method of Rapoport; from tissue; host or cells: reticulocytes of phenylhydrazine-treated rabbits
T1 sequence (P12530 1-663): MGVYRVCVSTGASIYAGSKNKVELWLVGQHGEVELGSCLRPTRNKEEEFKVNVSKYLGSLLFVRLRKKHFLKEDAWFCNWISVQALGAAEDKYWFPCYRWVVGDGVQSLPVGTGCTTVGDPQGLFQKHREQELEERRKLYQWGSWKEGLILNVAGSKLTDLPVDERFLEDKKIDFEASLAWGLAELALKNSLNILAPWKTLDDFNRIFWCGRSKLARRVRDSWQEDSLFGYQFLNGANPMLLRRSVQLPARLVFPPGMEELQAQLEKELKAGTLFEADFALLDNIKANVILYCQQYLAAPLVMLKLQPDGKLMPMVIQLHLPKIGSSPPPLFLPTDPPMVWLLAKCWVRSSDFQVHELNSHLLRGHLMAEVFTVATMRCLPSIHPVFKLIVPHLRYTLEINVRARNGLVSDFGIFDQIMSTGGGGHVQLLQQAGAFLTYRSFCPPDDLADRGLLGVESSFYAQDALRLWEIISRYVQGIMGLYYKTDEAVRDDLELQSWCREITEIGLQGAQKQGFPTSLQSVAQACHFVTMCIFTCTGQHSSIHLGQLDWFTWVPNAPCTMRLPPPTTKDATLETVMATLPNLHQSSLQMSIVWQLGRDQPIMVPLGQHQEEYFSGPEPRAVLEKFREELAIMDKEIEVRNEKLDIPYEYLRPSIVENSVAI
Summary of the method: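 Linoleic acid oxidation to 13-HPODE measured at 4° C. over 15 minutes, using 174 μM substrate and 2U enzyme purified from phenylhydrazine-treated rabbits in PBS/0.2% Na cholate. Product peak areas calibrated with authentic 13-HODE; inhibition expressed versus maximal reaction.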

| IC50 [1] [nM] | h15LO, value given as bare % [1] [%] | also measured | SMILES |
| --- | --- | --- | --- |
|  |  | melting point: 174 to 175 °C | COc1ccc(NC(=O)Nc2ccccc2)cc1N [Example 24, 1-(3-Amino-4-methoxyphenyl)-3-phenyl-urea] |
|  |  | melting point: 149 to 151 °C | Cc1ccc(C(=O)Nc2ccccc2)cc1N [Example 1, 3-Amino-4-methyl-N-phenyl-benzamide] |
| 54 |  |  | COc1ccc(C(=O)Nc2ccccc2)cc1Nc1ccc(F)cc1 [Example 153, 3-(4-Fluoro-phenylamino)-4-methoxy-N-phenyl-benzamide] |
|  | 67.58 |  | COc1ccc(C(=O)Nc2cccnc2)cc1NCc1cccs1 [Example 262, 4-Methoxy-3-[(thiophen-2-ylmethyl)-amino]-N-pyridin-3-yl-benzamide] |
|  | 64.09 |  | COc1ccc(C(=O)Nc2ccccc2)cc1NCc1ccc(-c2ccccc2)cc1 [Example 236, 3-[(Biphenyl-4-ylmethyl)-amino]-4-methoxy-N-phenyl-benzamide] |
|  | 58.44 |  | CCCCc1ccc(CNc2cc(C(=O)Nc3ccccc3)ccc2OC)cc1 [Example 239, 3-(4-Butyl-benzylamino)-4-methoxy-N-phenyl-benzamide] |
|  | 94.44 |  | COc1ccc(C(=O)Nc2ccc(F)cc2)cc1Nc1ccc(F)cc1 [Example 155, 3-(4-Fluoro-phenylamino)-4-methoxy-N-(4-fluoro-phenyl)-benzamide] |
|  | 37.05 |  | Nc1cc(C(=O)Nc2ccccc2)ccc1OC(F)(F)F [Example 147, 3-Amino-4-trifluoromethoxy-N-phenyl-benzamide] |
|  | 47 |  | Cc1ccc(C(=O)Nc2ccccc2)cc1NC(=O)c1cc(Cl)cc(Cl)c1 [Example 255, 3-[(3,5-Dichlorobenzoyl)amino]-4-methyl-N-phenyl-benzamide] |
| 232 |  |  | COc1ccc(C(=O)Nc2ccccc2)cc1NS(=O)(=O)C(C)C [Example 182, 3-(1-Methylethyl-1-sulfonylamino)-4-methoxy-N-phenyl-benzamide] |
| 109 |  |  | COc1ccc(NC(=O)c2ccc(F)c(F)c2)cc1NC(=S)Nc1ccc(C(=O)O)cc1 [Example 168, 4-{3-[5-(3,4-Difluoro-benzoylamino)-2-methoxy-phenyl]-thioureido}-benzoic Acid acid] |
| 892 |  |  | COc1ccc(C(=O)Nc2ccccc2)cc1NCc1ccccc1C [Example 223, 4-Methoxy-3-(2-methyl-benzylamino)-N-phenyl-benzamide] |
|  | 97.68 |  | COc1ccc(NC(=O)c2ccc(F)c(F)c2)cc1NS(=O)(=O)c1ccc(N)cc1 [Example 199, 3,4-Difluoro-N-[4-methoxy-3-(4-amino-benzenesulfonylamino)-phenyl]-benzamide] |
| 166 |  |  | COc1ccc(C(=O)Nc2ccccc2)cc1NCc1cccc(F)c1F [Example 219, 3-(2,3-Difluoro-benzylamino)-4-methoxy-N-phenyl-benzamide] |
| 205 |  |  | COc1ccc(NC(=O)c2ccc(F)c(F)c2)cc1N [Example 150, 3,4-Difluoro-N-(3-amino-4-methoxy-phenyl)-benzamide] |
| 69 |  |  | COc1ccc(C(=O)Nc2ccc(F)c(F)c2)cc1NCc1cccc(F)c1 [Example 212, 3-(3-Fluoro-benzylamino)-4-methoxy-N-(3,4-difluoro-phenyl)-benzamide] |
|  | 67.26 |  | CCCOc1ccc(CNc2cc(C(=O)Nc3ccccc3)ccc2OC)cc1 [Example 235, 4-Methoxy-3-(4-propoxy-benzylamino)-N-phenyl-benzamide] |
|  | 73.46 |  | COc1ccc(C(=O)Nc2ccccc2)cc1NCc1ccc(C#N)cc1 [Example 233, 3-(4-Cyano-benzylamino)-4-methoxy-N-phenyl-benzamide] |
| 110 |  |  | COc1ccc(C(=O)Nc2ccccc2)cc1NCc1cccc([N+](=O)[O-])c1 [Example 215, 4-Methoxy-3-(3-nitro-benzylamino)-N-phenyl-benzamide] |
|  | 90.33 |  | COC(=O)c1cccc(NC(=O)c2ccc(OC)c(Nc3cccc(C(F)(F)F)c3)c2)c1 [Example 156, 3-[4-Methoxy-3-(3-trifluoromethyl-phenylamino)-benzoylamino]-benzoic Acid Methyl Ester] |

| IC50 [1] [nM] | h15LO, value given as bare % [1] [%] | also measured | SMILES |
| --- | --- | --- | --- |
| 732 |  |  | CCCCCCCCCCCCCCCCCCS(=O)(=O)Nc1cc(C(=O)Nc2ccccc2)ccc1OC [Example 184, 3-(Octadecane-1-sulfonylamino)-4-methoxy-N-phenyl-benzamide] |
|  | 89.03 |  | COC(=O)c1cccc(NC(=S)Nc2cc(NC(=O)Nc3ccc(Cl)c(Cl)c3)ccc2OC)c1 [Example 172, 3-(3-{5-[3-(3,4-Dichloro-phenyl)-ureido]-2-methoxy-phenyl}-thioureido)-benzoic Acid Methyl Ester] |
|  | 96.99 |  | COc1ccc(C(=O)Nc2ccc(F)cc2)cc1NS(=O)(=O)c1ccc([N+](=O)[O-])cc1 [Example 191, 4-Methoxy-3-(4-nitro-benzenesulfonylamino)-N-(4-fluoro-phenyl)-benzamide] |
| 385 |  |  | COc1ccc(C(=O)Nc2ccccc2)cc1NCc1cccc(C)c1 [Example 273, 4-Methoxy-3-(3-methyl-benzylamino)-N-phenyl-benzamide] |
|  | 97.05 |  | COc1ccc(C(=O)Nc2ccc(F)cc2)cc1NS(=O)(=O)c1cccc([N+](=O)[O-])c1 [Example 190, 4-Methoxy-3-(3-nitro-benzenesulfonylamino)-N-(4-fluoro-phenyl)-benzamide] |
| 213 |  |  | COc1ccc(C(=O)Nc2ccccc2)cc1NCc1ccc(N(C)C)cc1 [Example 268, 3-(4-Dimethylamino-benzylamino)-4-methoxy-N-phenyl-benzamide] |
|  | 97.88 |  | COc1ccc(C(=O)Nc2ccccc2)cc1NCc1ccc(O)c([N+](=O)[O-])c1 [Example 225, 3-(4-Hydroxy-3-nitro-benzylamino)-4-methoxy-N-phenyl-benzamide] |
| 46 |  |  | COc1ccc(C(=O)Nc2ccccc2)cc1NS(=O)(=O)c1cc(Cl)cc(Cl)c1 [Example 248, 3-(3,5-Dichloro-benzenesulfonylamino)-4-methoxy-N-phenyl-benzamide] |
|  |  | inhibition at 10 µM ([1]; 0.25 h, @ 10 μM, read-out: h15LO % @ 10 μM): 66% | O=C(Nc1ccccc1)c1cc(NC(=S)Nc2cc(Cl)cc(Cl)c2)ccc1F [Example 101, 5-[3-(3,5-Dichlorophenyl)-thioureido]-2-fluoro-N-phenyl-benzamide] |
| 40 |  |  | COc1ccc(C(=O)Nc2ccccc2)cc1CNC(=S)Nc1cc(Cl)cc(Cl)c1 [Example 247, 3-[3-(3,5-Dichloro-phenyl)-thioureidomethyl]-4-methoxy-N-phenyl-benzamide] |
|  | 97.17 |  | COc1ccc(C(=O)Nc2ccc(F)cc2)cc1NS(=O)(=O)c1cccc(C#N)c1 [Example 189, 3-(3-Cyano-benzenesulfonylamino)-4-methoxy-N-(4-fluoro-phenyl)-benzamide] |
|  | 53.51 |  | CCOC(=O)c1cccc(NC(=O)c2ccc(OC)c(NCc3cccs3)c2)c1 [Example 263, 3-{4-Methoxy-3-[(thiophen-2-ylmethyl)-amino]-benzoylamino}-benzoic Acid Ethyl Ester] |
| 86 |  |  | COc1ccc(NC(=O)c2ccc(Cl)c(Cl)c2)cc1NCc1cccc(F)c1 [Example 244, 3,4-Dichloro-N-[3-(3-fluoro-benzylamino)-4-methoxy-phenyl]-benzamide] |
|  | 82.66 |  | Nc1cc(NC(=O)c2ccc(F)c(F)c2)ccc1F [Example 151, 3,4-Difluoro-N-(3-amino-4-fluoro-phenyl)-benzamide] |
| 2 |  |  | CCCCCCCCCCCCS(=O)(=O)Nc1cc(C(=O)Nc2ccccc2)ccc1OC [Example 177, 3-(Dodecane-1-sulfonylamino)-4-methoxy-N-phenyl-benzamide] |
|  | 99.35 |  | COc1ccc(C(=O)Nc2ccc(F)c(F)c2)cc1NS(=O)(=O)c1ccc([N+](=O)[O-])cc1 [Example 186, 4-Methoxy-3-(4-nitro-benzenesulfonylamino)-N-(3,4-difluoro-phenyl)-benzamide] |
|  | 98.38 |  | COc1ccc(C(=O)Nc2ccc(F)c(F)c2)cc1NS(=O)(=O)c1ccc(C#N)cc1 [Example 187, 3-(4-Cyano-benzenesulfonylamino)-4-methoxy-N-(3,4-difluoro-phenyl)-benzamide] |
| 241 |  |  | COc1ccc(C(=O)Nc2ccccc2)cc1NCc1ccccc1F [Example 270, 4-Methoxy-3-(2-fluoro-benzylamino)-N-phenyl-benzamide] |
| 100 |  |  | COc1ccc(C(=O)Nc2ccc(Cl)c(Cl)c2)cc1Nc1cccc(C(F)(F)F)c1 [Example 47, 4-Methoxy-3-(3-trifluoromethyl-phenylamino)-N-(3,4-dichlorophenyl)-benzamide] |
